The text below walks through data of US9802958B2, “Tetrahydro[1,8]naphthyridine sulfonamide and related compounds for use as agonists of RORy and the treatment of disease” (Lycera Corporation, priority 2012, dated 2017).

The test has as its target T1, RORγ-LBD (Homo sapiens, UniProt P51449).
T1 construct: made in house; host or cells: SF9 insect cells, baculovirus; unpurified lysate used
T1 sequence (P51449 269-508 limits assumed): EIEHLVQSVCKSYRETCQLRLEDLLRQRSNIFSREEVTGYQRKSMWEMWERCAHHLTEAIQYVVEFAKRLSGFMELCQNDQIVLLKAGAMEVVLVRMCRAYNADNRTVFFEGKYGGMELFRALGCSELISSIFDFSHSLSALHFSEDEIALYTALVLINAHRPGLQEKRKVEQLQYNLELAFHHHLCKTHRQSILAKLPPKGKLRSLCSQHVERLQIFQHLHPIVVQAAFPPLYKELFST
Put plainly: RORγ-Ligand Binding Domain (LBD) TR-FRET Assay. The format is biochemical. The following applies: for pEC50: increase of RORγ activity, recombinant HIS-tagged RORγ-LBD, biotinylated SRC1-2 LXXLL peptide. The procedure:
Exemplary compounds from the above Examples were tested for ability to increase RORγ activity using a RORγ-Ligand Binding Domain (LBD) TR-FRET Assay. Assay procedures and results are described below.
Recombinant, HIS-tagged RORγ-LBD was expressed in SF9 cells using a baculovirus expression system. Cells were lysed and the lysate was used as a source for RORγ-LBD for the assay. A 1:80 dilution of RORγ-LBD lysate in assay buffer (25 mM HEPES pH 7.0, 100 mM NaCl, 0.01% Tween, 0.1% BSA) was prepared and 5 μL was added to each well (RORγ-LBD final concentration ˜3 nM). Control wells received lysate from SF9 cells not expressing RORγ-LBD.
Compounds to be tested were diluted to 100× final test concentration in DMSO and further diluted to 4× final test concentration using assay buffer to provide the test compound mixture. An aliquot (5 μL) of the test compound mixture was added to each well.
A 4× stock of biotinylated-LXXLL peptide from SRC1-2 (Biotin-[…]) was prepared in assay buffer and a 5 μL aliquot added to each well (450 nM final concentration). A 4× solution of europium tagged anti-HIS antibody (2 nM final concentration) and APC conjugated streptavidin (60 nM final concentration) were prepared and a 5 μL aliquot added to each well.
The final assay mixture was incubated for 4 hours to overnight, and the fluorescence signal was measured on an Envision plate reader: (Excitation filter=340 nm; APC emission=665 nm; Europium emission=615 nm; dichroic mirror=D400/D630; delay time=100 μs, integration time=200 μs).
EC50 values for test compounds were calculated from the quotient of the fluorescence signal at 665 nm divided by the fluorescence signal at 615 nm using GraphPad Prism software.
In general terms: Time-resolved FRET reads energy transfer from a long-lived donor to a nearby acceptor.

pEC50: −log10 of the molar value.

In general, pEC50 refers to the negative decadic logarithm of the EC50, by convention in mol/L. Take `O=C(Nc1ccc2c(n1)N(S(=O)(=O)c1ccc(F)cc1)CCC2)c1c(F)cccc1F` [Compound 1, 2,6-Difluoro-N-(8-(4-fluorobenzenesulfonyl)-5,6,7,8-tetrahydro[1,8]naphthyridin-2-yl)benzamide]: the pEC50 was no less than 4.82.
With `Cc1cccc(S(=O)(=O)N2CCOc3ccc(OC(C)c4ccccc4)nc32)c1` (stereo not drawn) [Compound 6], the “promotion of RORγ activity” value (assay measuring EC50 values less than or equal to 20 μM) is reported as “No promotion of RORγ activity was detected”.
Consider `Cc1cccc(S(=O)(=O)N2CCOc3ccc(NC(=O)c4c(Cl)cccc4Cl)nc32)c1` [Compound 2, 2,6-Dichloro-N-[4-(toluene-3-sulfonyl)-3,4-dihydro-2H-pyrido[3,2-b][1,4]oxazin-6-yl]-benzamide], for which the pEC50 was no less than 4.82.
On the same count and under the same terms, in the case of `Cc1cccc(S(=O)(=O)N2CCOc3ccc(OCc4ccccc4)nc32)c1` [Compound 4] it was no less than 4.82.
The same measure, in the same setting: in the case of `Cc1cccc(S(=O)(=O)N2CCOc3ccc(OCc4c(Cl)cccc4Cl)nc32)c1` [Compound 5] it was no less than 4.82; in that of `Cc1cccc(S(=O)(=O)N2CCOc3ccc(NC(=O)C(C)c4ccccc4)nc32)c1` (stereo not drawn) [Compound 3, 2-Phenyl-N-[4-(toluene-3-sulfonyl)-3,4-dihydro-2H-pyrido[3,2-b][1,4]oxazin-6-yl]-propionamide], no less than 4.82.
